Literature values in US11459613B2, “Methods of characterizing resistance to modulators of Cereblon” (THE BRIGHAM AND WOMEN'S HOSPITAL, INC., priority 2015, dated 2022).

Settings: lenalidomide in combination with dexamethasone, front-line therapy, standard-risk multiple myeloma

## Nc1cccc2c1CN(C1CCC(=O)NC1=O)C2=O (stereo not shown) [lenalidomide]
  disease progression develops after initiating treatment (on average): 11 months
